Measurements as given in US20260083864A1, “CONTRAST AGENTS FOR USE IN DIAGNOSTIC COMPUTED TOMOGRAPHY IMAGING” (Bayer Aktiengesellschaft, priority 2022, published 2026).

Columns and labels:
[1] = Relaxivity measurements at 1.41 T in human plasma; type: physicochemical; details: 37° C., normalized to Gd
In short: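 T1 determined by inversion recovery (8 inversion-time steps) and T2 by CPMG sequence, both with relaxation delay ≥5×T1. Each relaxivity used three Gd concentrations between 0.05 and 2 mM. Relaxivities were derived from relaxation rates measured in water and plasma.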

[2] = Partition coefficient (log P butanol/buffer); type: physicochemical; details: 1-butanol / 50 mM Tris-HCl, pH 7.4, room temperature
[3] = tested on: freshly isolated rat hepatocytes; experiment: Uptake into freshly isolated rat hepatocytes; details: for Uptake rat hepatocytes: 100 μmol Gd/L, 10 min, 37° C., relative to RC1 (Gd-EOB-DTPA); for Inhibition Rifampicine: rat hepatocyte uptake, test item and Rifampicine 1:1, each 100 μM
[4] = Water solubility in aqueous buffer; details: aqueous buffer 10 mM Tris-HCl, pH 7.4, 20° C.
Experimental: The solid compounds were added stepwise to the buffer solution. More substance is added once all the suspended material is dissolved until an equilibrium between undissolved and dissolved substance is reached. The suspension was mixed using a shaker (Heidolph Reax 2000) and treated 5 min in an ultrasound bath (Bandelin, Sonorex Super RK255H).

[5] = Complex stability (transmetallation) against Zn2+ in phosphate buffer; details: 72 hours, 2.5 mM Zn^2+, 26 mM phosphate buffer, 37° C., pH 7.4
Excerpt: If test compounds are instable under these conditions, transmetallation during this test would lead to the formation of the Zn^2+ complex of the test item, while Gd^3+ is released and precipitated as highly insoluble GdPO4.

[6] = Relaxivity measurements at 1.41 T in water; type: physicochemical; details: 37° C., normalized to Gd
In short: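 T1 by inversion recovery and T2 by CPMG at 1.41 T (60 MHz), 37° C, relaxation delay ≥5×T1. Three Gd concentrations between 0.05 and 2 mM; relaxivities derived from measured relaxation rates in water.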

OATP1B1 = biological target: T1, OATP1B1 (Homo sapiens, UniProt Q9Y6L6); experiment: Uptake into stable transfected OATP1B1 HEK 293 cells; type: cell-based; details: for Uptake into OATP1B1-HEK 293 cells: 40 min incubation, relative to RC1 (Gd-EOB-DTPA); for Inhibition Rifampicine: uptake into OATP1B1-HEK 293 cells
T1 sequence (Q9Y6L6 1-691): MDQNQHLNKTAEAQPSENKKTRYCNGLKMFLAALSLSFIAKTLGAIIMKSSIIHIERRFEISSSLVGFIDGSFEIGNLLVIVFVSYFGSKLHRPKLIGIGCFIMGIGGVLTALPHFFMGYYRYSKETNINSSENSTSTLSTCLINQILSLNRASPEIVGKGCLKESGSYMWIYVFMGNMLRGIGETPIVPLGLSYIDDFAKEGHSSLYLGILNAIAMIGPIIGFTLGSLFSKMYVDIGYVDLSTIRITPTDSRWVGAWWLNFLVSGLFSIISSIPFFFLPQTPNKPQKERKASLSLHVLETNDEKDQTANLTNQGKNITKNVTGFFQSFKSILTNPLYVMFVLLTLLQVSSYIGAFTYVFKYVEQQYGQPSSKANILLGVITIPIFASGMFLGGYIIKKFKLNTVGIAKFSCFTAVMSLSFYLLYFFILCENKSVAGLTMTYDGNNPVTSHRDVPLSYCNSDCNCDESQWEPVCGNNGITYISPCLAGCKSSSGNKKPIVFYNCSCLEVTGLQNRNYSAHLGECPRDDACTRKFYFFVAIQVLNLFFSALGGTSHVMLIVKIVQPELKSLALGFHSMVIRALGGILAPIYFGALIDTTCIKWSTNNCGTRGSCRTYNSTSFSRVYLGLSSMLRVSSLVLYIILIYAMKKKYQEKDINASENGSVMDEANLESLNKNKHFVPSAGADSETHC
In short: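 Uptake measured in triplicate after a 40 min, unshaken exposure of OATP1B1-expressing HEK293 cells to 100 µM (final) compound in transport buffer. Cold PBS wash stopped uptake; Gd-EOB-DTPA served as reference standard within each plate.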

OATP1B3 = biological target: T2, OATP1B3 (Homo sapiens, UniProt Q9NPD5); experiment: Uptake into stable transfected OATP1B3 HEK 293 cells; type: cell-based; details: for Uptake into OATP1B3-HEK 293 cells: 40 min incubation, relative to RC1 (Gd-EOB-DTPA); for Inhibition Rifampicine: uptake into OATP1B3-HEK 293 cells
T2 sequence (Q9NPD5 1-702): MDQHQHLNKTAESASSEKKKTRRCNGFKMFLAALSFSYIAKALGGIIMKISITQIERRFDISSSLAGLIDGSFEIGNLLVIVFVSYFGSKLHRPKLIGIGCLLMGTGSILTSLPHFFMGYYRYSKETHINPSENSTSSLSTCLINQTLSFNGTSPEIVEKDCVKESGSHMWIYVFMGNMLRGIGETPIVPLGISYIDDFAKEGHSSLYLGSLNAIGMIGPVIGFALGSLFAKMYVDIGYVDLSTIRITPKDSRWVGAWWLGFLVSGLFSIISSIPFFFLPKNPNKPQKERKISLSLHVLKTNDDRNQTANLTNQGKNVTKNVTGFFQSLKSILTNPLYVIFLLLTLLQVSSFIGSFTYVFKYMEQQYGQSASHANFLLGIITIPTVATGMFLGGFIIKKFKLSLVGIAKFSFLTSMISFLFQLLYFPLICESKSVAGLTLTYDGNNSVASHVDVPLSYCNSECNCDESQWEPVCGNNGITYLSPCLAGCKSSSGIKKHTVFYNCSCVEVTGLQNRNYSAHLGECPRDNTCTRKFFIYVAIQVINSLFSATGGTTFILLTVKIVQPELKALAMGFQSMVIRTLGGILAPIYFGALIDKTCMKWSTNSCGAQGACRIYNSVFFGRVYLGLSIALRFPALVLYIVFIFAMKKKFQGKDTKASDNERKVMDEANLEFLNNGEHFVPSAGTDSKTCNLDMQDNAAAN
In short: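 HEK 293 cells stably transfected with human OATP1B3 were incubated for 40 min with test items at 100 μM final in transport buffer, in triplicate, then washed with cold PBS. Gadoxetate (Gd-EOB-DTPA) served as the reference standard on the same plate.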

CCOCCOCCOc1ccc(CC(C(=O)O)N2CCN(CC(=O)[O-])CCN(C(C)C(=O)[O-])CCN(CC(=O)[O-])CC2)cc1.[Gd+3] (single isomer, unassigned) [Example 6, gadolinium 2-[7-(1-carboxy-2-{4-[2-(2-ethoxyethoxy)ethoxy]phenyl}ethyl)-4,10-bis(carboxylatomethyl)-1,4,7,10-tetraazacyclododecan-1-yl]propanoate]
r1 human plasma [1]: 6.6 L/mmol/s
Log P (partition coefficient butanol/buffer) [2]: −1.44
Uptake rat hepatocytes [3]: 62 % of RC1
Inhibition Rifampicine [3]: 96 % inhibition
Solubility [4]: >217 mM
Transmetallation stability [5]: 102%
r1 water [6]: 4.3 L/mmol/s

CCOCCOc1ccc(CC(C(=O)O)N2CCN(CC(=O)[O-])CCN(C(CC)C(=O)[O-])CCN(CC(=O)[O-])CC2)cc1.[Gd+3] (single isomer, unassigned) [Example 7, gadolinium 2-[7-{1-carboxy-2-[4-(2-ethoxyethoxy)phenyl]ethyl}-4,10-bis(carboxylatomethyl)-1,4,7,10-tetraazacyclododecan-1-yl]butanoate]
r1 human plasma [1]: 7.4 L/mmol/s
Uptake into OATP1B1-HEK 293 cells (OATP1B1): 217 % of RC1
Inhibition Rifampicine (OATP1B1): 91 % inhibition
Log P (partition coefficient butanol/buffer) [2]: −1.09
Uptake rat hepatocytes [3]: 89 % of RC1
Inhibition Rifampicine [3]: 99 % inhibition
Uptake into OATP1B3-HEK 293 cells (OATP1B3): 76 % of RC1
Inhibition Rifampicine (OATP1B3): 99 % inhibition
Solubility [4]: >243 mM
Transmetallation stability [5]: 101%
r1 water [6]: 4.5 L/mmol/s

CCOCCOc1ccc(CC(C(=O)O)N2CCN(CC(=O)[O-])CCN(C(CC)C(=O)[O-])CCN(CC(=O)[O-])CC2)cc1.[Gd+3] (single isomer, unassigned) [Example 8, gadolinium 2-[7-{1-carboxy-2-[4-(2-ethoxyethoxy)phenyl]ethyl}-4,10-bis(carboxylatomethyl)-1,4,7,10-tetraazacyclododecan-1-yl]butanoate]
r1 human plasma [1]: 7.2 L/mmol/s
Uptake into OATP1B1-HEK 293 cells (OATP1B1): 271 % of RC1
Inhibition Rifampicine (OATP1B1): 90 % inhibition
Log P (partition coefficient butanol/buffer) [2]: −1.04
Uptake rat hepatocytes [3]: 83 % of RC1
Inhibition Rifampicine [3]: 98 % inhibition
Uptake into OATP1B3-HEK 293 cells (OATP1B3): 90 % of RC1
Inhibition Rifampicine (OATP1B3): 99 % inhibition
Solubility [4]: 117 mM
Transmetallation stability [5]: 102%
r1 water [6]: 4.5 L/mmol/s

CCOCCOCCOc1ccc(CCCC(C(=O)O)N2CCN(C(CO)C(=O)[O-])CCN(C(CO)C(=O)[O-])CCN(C(CO)C(=O)[O-])CC2)cc1.[Gd+3] (centres unmarked) [Example 17, gadolinium-2,2′,2″-{10-[1-carboxy-4-{4-[2-(2-ethoxyethoxy)ethoxy]phenyl}butyl]-1,4,7,10-tetraazacyclododecane-1,4,7-triyl}tris(3-hydroxypropanoate)]
r1 human plasma [1]: 10.1 L/mmol/s
Inhibition Rifampicine (OATP1B1): 88 % inhibition
Uptake rat hepatocytes [3]: 71 % of RC1
Inhibition Rifampicine [3]: 91 % inhibition
Inhibition Rifampicine (OATP1B3): 98 % inhibition
Solubility [4]: >217 mM
Transmetallation stability [5]: 98%
r1 water [6]: 5.3 L/mmol/s

CCOCCOCCOc1ccc(CC(C(=O)O)N2CCN(C(CO)C(=O)[O-])CCN(C(CO)C(=O)[O-])CCN(C(CO)C(=O)[O-])CC2)cc1.[Gd+3] (centres unmarked) [Example 22, gadolinium 2,2′,2″-{10-[1-carboxy-2-{4-[2-(2-ethoxyethoxy)ethoxy]phenyl}ethyl]-1,4,7,10-tetraazacyclododecane-1,4,7-triyl}tris(3-hydroxypropanoate)]
r1 human plasma [1]: 7.7 L/mmol/s
Uptake into OATP1B1-HEK 293 cells (OATP1B1): 77 % of RC1
Inhibition Rifampicine (OATP1B1): 51 % inhibition
Uptake rat hepatocytes [3]: 41 % of RC1
Inhibition Rifampicine [3]: 83 % inhibition
Uptake into OATP1B3-HEK 293 cells (OATP1B3): 46 % of RC1
Inhibition Rifampicine (OATP1B3): 96 % inhibition
Solubility [4]: >308 mM
Transmetallation stability [5]: 96%
r1 water [6]: 5.4 L/mmol/s

CCOCCOCCOCCOc1ccc(CC(C(=O)O)N2CCN(CC(=O)[O-])CCN(C(CO)C(=O)[O-])CCN(CC(=O)[O-])CC2)cc1.[Gd+3] (centres unmarked) [Example 42, gadolinium-2-{7-[1-carboxy-2-(4-{2-[2-(2-ethoxyethoxy)ethoxy]ethoxy}phenyl)ethyl]-4,10-bis(carboxylatomethyl)-1,4,7,10-tetraazacyclododecan-1-yl}-3-hydroxypropanoate]
r1 human plasma [1]: 7.2 L/mmol/s
Uptake into OATP1B1-HEK 293 cells (OATP1B1): 89 % of RC1
Inhibition Rifampicine (OATP1B1): 62 % inhibition
Log P (partition coefficient butanol/buffer) [2]: −1.60
Uptake rat hepatocytes [3]: 44 % of RC1
Inhibition Rifampicine [3]: 95 % inhibition
Uptake into OATP1B3-HEK 293 cells (OATP1B3): 20 % of RC1
Inhibition Rifampicine (OATP1B3): 91 % inhibition
Solubility [4]: >81 mM
r1 water [6]: 5.0 L/mmol/s

O=C([O-])CN1CCN(CC(=O)[O-])CCN([C@H](Cc2ccc(OCC(F)(F)F)cc2)C(=O)O)CCN(CC(=O)[O-])CC1.[Gd+3] [Example 47, gadolinium 2,2′,2″-(10-{(1R)-1-carboxy-2-[4-(2,2,2-trifluoroethoxy)phenyl]ethyl}-1,4,7,10-tetraazacyclododecane-1,4,7-triyl)triacetate]
r1 human plasma [1]: 7.8 L/mmol/s
Uptake into OATP1B1-HEK 293 cells (OATP1B1): 13 % of RC1
Inhibition Rifampicine (OATP1B1): 93 % inhibition
Log P (partition coefficient butanol/buffer) [2]: −0.77
Uptake rat hepatocytes [3]: 55 % of RC1
Inhibition Rifampicine [3]: 82 % inhibition
Uptake into OATP1B3-HEK 293 cells (OATP1B3): 19 % of RC1
Inhibition Rifampicine (OATP1B3): 90 % inhibition
Solubility [4]: >229 mM
r1 water [6]: 3.7 L/mmol/s

CCCOc1ccc(CC(C(=O)O)N2CCN(CC(=O)[O-])CCN(CC(=O)[O-])CCN(CC(=O)[O-])CC2)cc1.[Gd+3] (centres unmarked) [Example 48, gadolinium 2,2′,2″-{10-[1-carboxy-2-(4-propoxyphenyl)ethyl]-1,4,7,10-tetraazacyclododecane-1,4,7-triyl}triacetate]
r1 human plasma [1]: 9.3 L/mmol/s
Uptake into OATP1B1-HEK 293 cells (OATP1B1): 240 % of RC1
Inhibition Rifampicine (OATP1B1): 92 % inhibition
Uptake rat hepatocytes [3]: 77 % of RC1
Inhibition Rifampicine [3]: 98 % inhibition
Uptake into OATP1B3-HEK 293 cells (OATP1B3): 11 % of RC1
Inhibition Rifampicine (OATP1B3): 81 % inhibition
Solubility [4]: 16 mM
Transmetallation stability [5]: 99%
r1 water [6]: 4.0 L/mmol/s
